This passage reports Kb results from ChEMBL document CHEMBL1130881, “Novel imidazole derivatives with subtype-selective antimuscarinic activity (1)” (Bioorg Med Chem Lett, 1998).

The target in the assay is Muscarinic acetylcholine receptor M3 (Cavia porcellus) (UniProt Q8VH26). Briefly: Antimuscarinic activity was evaluated against muscarinic M3 receptor in Guinea-Pig ileum. It is filed as tissue-based.
Sequence of Muscarinic acetylcholine receptor M3 (Cavia porcellus) (Q8VH26 1-587): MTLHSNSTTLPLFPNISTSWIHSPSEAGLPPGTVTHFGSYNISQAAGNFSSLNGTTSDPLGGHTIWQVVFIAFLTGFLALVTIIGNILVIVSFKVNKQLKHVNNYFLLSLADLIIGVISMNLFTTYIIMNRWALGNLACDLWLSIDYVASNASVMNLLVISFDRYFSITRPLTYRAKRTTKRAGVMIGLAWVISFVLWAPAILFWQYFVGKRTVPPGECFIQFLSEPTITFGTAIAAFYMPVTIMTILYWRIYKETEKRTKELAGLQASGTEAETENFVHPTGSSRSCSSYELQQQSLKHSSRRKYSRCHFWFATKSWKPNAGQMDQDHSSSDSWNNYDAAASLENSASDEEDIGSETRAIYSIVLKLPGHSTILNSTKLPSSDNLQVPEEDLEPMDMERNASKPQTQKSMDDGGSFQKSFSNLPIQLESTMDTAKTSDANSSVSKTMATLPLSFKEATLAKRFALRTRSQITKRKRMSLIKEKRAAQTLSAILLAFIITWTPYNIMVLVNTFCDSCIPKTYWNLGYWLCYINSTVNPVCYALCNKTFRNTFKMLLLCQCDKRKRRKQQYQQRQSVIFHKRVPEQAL

`CCN(CC)CCC(c1ccccc1)c1ccccc1` returned a Kb of 197 nM.

`CC(CC(c1ccccc1)c1ccccc1)NC(C)(C)C` (centres undefined) registered a Kb of 67.7 nM.

`CCc1nccn1CCC(C(N)=O)(c1ccccc1)c1ccccc1` had a Kb of 78.1 nM. The same measure for `Cc1cn(CCC(C(N)=O)(c2ccccc2)c2ccccc2)cn1`: 10.1 nM. The same measure for `NC(=O)C(CCN1CCCC1)(c1ccccc1)c1ccccc1`: 5.59 nM; for `c1ccc(C(CCn2ccnc2)c2ccccc2)cc1`: 89.1 nM.

Consider `CCCc1ncn(CCC(C(N)=O)(c2ccccc2)c2ccccc2)c1CCC`, for which the Kb amounted to 100 nM. The same measure for `CCc1ncn(CCC(C(N)=O)(c2ccccc2)c2ccccc2)c1CC`: 3.98 nM. Next, `Cc1ncn(CCC(C(N)=O)(c2ccccc2)c2ccccc2)c1C`: 2.7 nM. Next, `Cc1nccn1CCC(C(N)=O)(c1ccccc1)c1ccccc1`: 0.32 nM. Compound `NC(=O)C(CCn1ccnc1)(c1ccccc1)c1ccccc1` came in with a Kb of 5.07 nM.

Consider `CC(C)(C)c1nccn1CCC(C(N)=O)(c1ccccc1)c1ccccc1`, for which the Kb came out at 30.2 nM. Next, `CC(C)c1nccn1CCC(C(N)=O)(c1ccccc1)c1ccccc1`: 1.8 nM; `N#CC(CCN1CCCC1)(c1ccccc1)c1ccccc1`: 65.7 nM; `NC(=O)C(CCn1cnc2ccccc21)(c1ccccc1)c1ccccc1`: 2130 nM.

In the case of `Cc1cncn1CCC(C(N)=O)(c1ccccc1)c1ccccc1`, the Kb was 0.86 nM. Next, `CCCc1nccn1CCC(C(N)=O)(c1ccccc1)c1ccccc1`: 177 nM; `c1ccc(C(CCN2CCCCC2)c2ccccc2)cc1`: 69.6 nM. As for `CC(C)(C)NCCC(c1ccccc1)c1ccccc1`, the Kb amounted to 792 nM.
